The record followed here is patent publication US8841321B2, “Quinoline derivatives as antibacterial agents” (Janssen Pharmaceutica NV, priority 2005, dated 2014).

Values after ≈ are worked out from the molar mass of the structure shown.

What all share (test): Microtitre plate assay, IC90 determination
What all share (assay type): cell-based

For assay [1], the system named is SPN 6305 (Streptococcus pneumoniae (ATCC6305)). As to conditions: for IC90 (μg/ml) SPN 6305: Streptococcus pneumoniae (ATCC6305); for IC90: Streptococcus pneumoniae, ATCC6305, Streptococcus pneumoniae (ATCC6305), read-out: IC90 (μg/ml) SPN 6305. Here is the method:
(§1) The bacteria used in this study were grown overnight in flasks containing 100 ml Mueller-Hinton Broth (Becton Dickinson—cat. no. 275730) in sterile de-ionized water, with shaking, at 37° C. Stocks (0.5 ml/tube) were stored at −70° C. until use. Bacteria titrations were performed in microtiter plates and colony forming units (CFUs) were determined. In general, an inoculum level of approximately 100 CFUs was used for susceptibility testing.
(§2) Flat-bottom, sterile 96-well plastic microtiter plates were filled with 180 μl of sterile deionized water, supplemented with 0.25% BSA. Subsequently, stock solutions (7.8× final test concentration) of compounds were added in 45 μl volumes in column 2. Serial five-fold dilutions (45 μl in 180 μl) were made directly in the microtiter plates from column 2 to reach column 11. Untreated control samples with (column 1) and without (column 12) inoculum were included in each microtiter plate. Depending on the bacteria type, approximately 10 to 60 CFU per well of bacteria inoculum (100 TCID50), in a volume of 100 μl in 2.8× Mueller-Hinton broth medium, was added to the rows A to H, except column 12. The same volume of broth medium without inoculum was added to column 12 in row A to H. The cultures were incubated at 37° C. for 24 hours under a normal atmosphere (incubator with open air valve and continuous ventilation). At the end of incubation, one day after inoculation, the bacterial growth was quantitated fluorometrically. Therefore resazurin (0.6 mg/ml) was added in a volume of 20 μl to all wells 3 hours after inoculation, and the plates were re-incubated overnight. A change in colour from blue to pink indicated the growth of bacteria. The fluorescence was read in a computer-controlled fluorometer (Cytofluor Biosearch) at an excitation wavelength of 530 nm and an emission wavelength of 590 nm. The % growth inhibition achieved by the compounds was calculated according to standard methods. The IC90 (expressed in μg/ml) was defined as the 90% inhibitory concentration for bacterial growth.

The subject of assay [2] is SPY 8668 (Streptococcus pyogens (ATCC8668)). As to conditions: Streptococcus pyogens (ATCC8668).
The test system of assay [3] is STA 29213 (Staphylococcus aureus (ATCC29213)). As to conditions: for IC90 (μg/ml) STA 29213: Staphylococcus aureus (ATCC29213). Here is the method:
as §1, §2

Assay [4] deals with STA RMETH (methicilline resistant Staphylococcus aureus (MRSA), a clinical isolate from the University of Antwerp). As to conditions: for IC90: Staphylococcus aureus, MRSA, read-out: IC90 (μg/ml) STA RMETH.

For the compound `COc1nc2ccc(Br)cc2cc1C(c1ccccc1)C(O)(CCCCN(C)Cc1ccccc1)c1ccc2ccccc2c1` (racemic) [Compound 76], the “IC90 (μg/ml) SPN 6305” value in assay [1] worked out at 2.34 µg/mL (≈ 3.55 µM). The “IC90 (μg/ml) SPY 8668” value in assay [2] worked out at 10.46 µg/mL (≈ 15.9 µM).
With `COc1nc2c(C)c(Br)ccc2cc1C(c1ccccc1)C(O)(CCCCN(C)C)c1ccc2ccccc2c1` (racemic) [Compound 80], the “IC90 (μg/ml) SPN 6305” value in assay [1] was found to be 2.12 µg/mL (≈ 3.55 µM). For the same compound, in assay [3], the “IC90 (μg/ml) STA 29213” value turned out to be 1.89 µg/mL (≈ 3.16 µM). For the same compound, the “IC90 (μg/ml) STA RMETH” value in assay [4] turned out to be 2.38 µg/mL (≈ 3.98 µM).
Taken in the same sequence, the figures for `COc1nc2ccc(-c3ccco3)cc2cc1C(c1ccccc1)C(O)(CCCCN(C)C)c1ccccc1` (racemic) [Compound 82] were 1.65 µg/mL (≈ 3.17 µM), 1.65 µg/mL (≈ 3.17 µM) and 10.39 µg/mL (≈ 20 µM).
On the same counts, the results for `COc1nc2ccc(-c3ccco3)cc2cc1C(c1ccccc1)C(O)(CCCCN(C)C)c1ccccc1` (racemic) [Compound 83] are 1.65 µg/mL (≈ 3.17 µM), 1.65 µg/mL (≈ 3.17 µM) and 5.21 µg/mL (≈ 10 µM).
`COc1nc2ccc(Br)cc2cc1C(c1ccccc1)C(O)(CCCCN(C)C)c1cccc(F)c1` (racemic) [Compound 84]: the “IC90 (μg/ml) SPN 6305” value in assay [1] came to 9.81 µg/mL (≈ 17.8 µM). Further, the “IC90 (μg/ml) STA 29213” value in assay [3] was 1.74 µg/mL (≈ 3.16 µM). The “IC90 (μg/ml) STA RMETH” value in assay [4] was found to be 11 µg/mL (≈ 19.9 µM).
Taken in the same sequence, the figures for `CCN(CC)CCCCC(O)(c1ccc2ccccc2c1)C(c1ccccc1)c1cc2cc(Br)ccc2nc1OC` (racemic) [Compound 85] were 1.93 µg/mL (≈ 3.16 µM), 1.93 µg/mL (≈ 3.16 µM) and 12.2 µg/mL (≈ 19.9 µM).
On the same counts, the results for `CCN(CC)CCCCC(O)(c1ccc2ccccc2c1)C(c1ccccc1)c1cc2cc(Br)ccc2nc1OC` (racemic) [Compound 86] are 2.43 µg/mL (≈ 3.97 µM), 2.17 µg/mL (≈ 3.55 µM) and 2.17 µg/mL (≈ 3.55 µM).
On the same counts, the results for `CSc1nc2ccc(Br)cc2cc1C(c1ccccc1)C(O)(CCCCN(C)C)c1ccc2c(c1)OCO2` (racemic) [Compound 87] are 2.36 µg/mL (≈ 3.98 µM), 1.88 µg/mL (≈ 3.17 µM) and 2.36 µg/mL (≈ 3.98 µM).
On to `COc1nc2ccc(Br)cc2cc1C(c1ccccc1)C(O)(CCCCN1CCCCC1)c1ccc2ccccc2c1` (racemic) [Compound 96], for which the “IC90 (μg/ml) SPN 6305” value in assay [1] is 2.21 µg/mL (≈ 3.54 µM). Further, the “IC90 (μg/ml) STA 29213” value in assay [3] was 4.42 µg/mL (≈ 7.09 µM). For the same compound, the “IC90 (μg/ml) STA RMETH” value in assay [4] was determined as 9.88 µg/mL (≈ 15.8 µM).
On the same counts, the results for `COc1nc2ccc(Br)cc2cc1C(c1ccccc1)C(O)(CCCCN1CCNCC1)c1ccccc1` (racemic) [Compound 104] are 2.04 µg/mL (≈ 3.55 µM), 1.82 µg/mL (≈ 3.17 µM) and 12.86 µg/mL (≈ 22.4 µM).
Taken in the same sequence, the figures for `COc1nc2ccc(Br)cc2cc1C(c1ccccc1)C(O)(CCCCN1CCNCC1)c1ccccc1` (racemic) [Compound 105] were 2.29 µg/mL (≈ 3.99 µM), 2.04 µg/mL (≈ 3.55 µM) and 11.46 µg/mL (≈ 19.9 µM).
On the same counts, the results for `COc1nc2ccc(Br)cc2cc1C(c1ccccc1)C(O)(CCCCN1CCCCC1)CC(C)C` (racemic) [Compound 122] are 1.96 µg/mL (≈ 3.54 µM), 1.75 µg/mL (≈ 3.16 µM) and 11.05 µg/mL (≈ 20 µM).
Take `COc1nc2ccc(Br)cc2cc1C(c1ccccc1)C(O)(CCCCN(C)C(C)C)c1ccccc1` (single isomer, unassigned) [Compound 91]: in assay [1], the “IC90 (μg/ml) SPN 6305” value was 2.51 µg/mL (≈ 4.47 µM). In addition, the “IC90 (μg/ml) STA 29213” value in assay [3] turned out to be 2.24 µg/mL (≈ 3.99 µM). Further, the “IC90 (μg/ml) STA RMETH” value in assay [4] came to 12.57 µg/mL (≈ 22.4 µM).
With `COc1nc2ccc(Br)cc2cc1C(c1ccccc1)C(O)(CCCCN1CCN(C)CC1)CCC1CCCCC1` (single isomer, unassigned) [Compound 126], in assay [1], the “IC90 (μg/ml) SPN 6305” value turned out to be 2.21 µg/mL (≈ 3.55 µM). For the same compound, in assay [3], the “IC90 (μg/ml) STA 29213” value is 4.41 µg/mL (≈ 7.08 µM). In assay [4], the “IC90 (μg/ml) STA RMETH” value is 5.55 µg/mL (≈ 8.91 µM).
On the same counts, the results for `COc1nc2ccc(Br)cc2cc1C(c1ccccc1)C(O)(CCCCN(C)C)CCc1ccccc1` (single isomer, unassigned) [Compound 131] are 2.24 µg/mL (≈ 3.99 µM), 1.78 µg/mL (≈ 3.17 µM) and 11.2 µg/mL (≈ 19.9 µM).
Taken in the same sequence, the figures for `CCN(CC)CCCCC(O)(CCc1ccccc1)C(c1ccccc1)c1cc2cc(Br)ccc2nc1OC` (single isomer, unassigned) [Compound 132] were 2.09 µg/mL (≈ 3.54 µM), 2.09 µg/mL (≈ 3.54 µM) and 11.76 µg/mL (≈ 19.9 µM).
Turning to `COc1nc2ccc(Br)cc2cc1C(c1ccccc1)C(O)(CCCCN1CCCCC1)CCc1ccccc1.Cl` (single isomer, unassigned) [Compound 133], the “IC90 (μg/ml) SPN 6305” value in assay [1] is 2.13 µg/mL. Moreover, in assay [3], the “IC90 (μg/ml) STA 29213” value was 1.9 µg/mL. The “IC90 (μg/ml) STA RMETH” value in assay [4] is 12 µg/mL.
Taken in the same sequence, the figures for `COc1nc2ccc(Br)cc2cc1C(c1ccccc1)C(O)(CCCCN1CCCCC1)CCc1ccccc1` (single isomer, unassigned) [Compound 134] were 2.13 µg/mL (≈ 3.54 µM), 4.26 µg/mL (≈ 7.08 µM) and 12 µg/mL (≈ 19.9 µM).
On the same counts, the results for `COc1nc2ccc(Br)cc2cc1C(c1ccccc1)C(O)(CCCCN1CCNCC1)CCc1ccccc1` (single isomer, unassigned) [Compound 135] are 2.4 µg/mL (≈ 3.98 µM), 1.91 µg/mL (≈ 3.17 µM) and 12.02 µg/mL (≈ 19.9 µM).
On the same counts, the results for `COc1nc2ccc(Br)cc2cc1C(c1ccccc1)C(O)(CCCCN1CCNCC1)CCc1ccccc1` (single isomer, unassigned) [Compound 136] are 2.4 µg/mL (≈ 3.98 µM), 1.91 µg/mL (≈ 3.17 µM) and 5.37 µg/mL (≈ 8.91 µM).
Consider `COc1nc2ccc(Br)cc2cc1C(c1ccccc1)C(O)(CCCCN1CCC(N(C)C)CC1)CCc1ccccc1` (single isomer, unassigned) [Compound 139], for which, in assay [1], the “IC90 (μg/ml) SPN 6305” value turned out to be 5.12 µg/mL (≈ 7.94 µM). In assay [3], the “IC90 (μg/ml) STA 29213” value worked out at 4.56 µg/mL (≈ 7.07 µM). Further, the “IC90 (μg/ml) STA RMETH” value in assay [4] was 12.86 µg/mL (≈ 19.9 µM).
On the same counts, the results for `COc1nc2ccc(Br)cc2cc1C(c1ccccc1)C(O)(CCCCN1CCC(N(C)C)CC1)CCc1ccccc1` (single isomer, unassigned) [Compound 140] are 4.56 µg/mL (≈ 7.07 µM), 4.56 µg/mL (≈ 7.07 µM) and 2.57 µg/mL (≈ 3.99 µM).
On the same counts, the results for `COc1nc2ccc(Br)cc2cc1C(c1ccccc1)C(O)(CCCCN1CCN(C)CC1)CCc1cccc2ccccc12` (single isomer, unassigned) [Compound 142] are 2.37 µg/mL (≈ 3.55 µM), 2.65 µg/mL (≈ 3.97 µM) and 2.37 µg/mL (≈ 3.55 µM).
As to `COc1nc2ccccc2cc1C(c1ccccc1)C(O)(CCCCN(C)C)c1ccc2ccccc2c1` (centres unmarked) [Compound 37], in assay [1], the “IC90 (μg/ml) SPN 6305” value was 1.8 µg/mL (≈ 3.57 µM). Also, the “IC90 (μg/ml) STA 29213” value in assay [3] was 2.0 µg/mL (≈ 3.96 µM). Also, the IC90 in assay [4] is 10.1 µg/mL (≈ 20 µM).
In the case of `COc1nc2ccc(-c3ccco3)cc2cc1C(c1ccccc1)C(O)(CCCCN(C)C)c1ccc2ccccc2c1` (centres unmarked) [Compound 39], the “IC90 (μg/ml) SPN 6305” value in assay [1] worked out at 3.6 µg/mL (≈ 6.31 µM). Moreover, the “IC90 (μg/ml) STA 29213” value in assay [3] was found to be 2.0 µg/mL (≈ 3.5 µM). The IC90 in assay [4] was found to be 4.5 µg/mL (≈ 7.88 µM).
Regarding `COc1nc2ccccc2cc1C(c1ccc(-c2ccccc2)cc1)C(O)(CCCCN(C)C)c1ccc2ccccc2c1` (centres unmarked) [Compound 56], the IC90 in assay [1] was 2.31 µg/mL (≈ 3.98 µM). The “IC90 (μg/ml) STA 29213” value in assay [3] is 1.84 µg/mL (≈ 3.17 µM). The “IC90 (μg/ml) STA RMETH” value in assay [4] worked out at 5.81 µg/mL (≈ 10 µM).
As to `COc1nc2ccccc2cc1C(c1ccc(-c2ccccc2)cc1)C(O)(CCCCN(C)C)c1ccc2ccccc2c1` (centres unmarked) [Compound 57], the “IC90 (μg/ml) SPN 6305” value in assay [1] is 2.31 µg/mL (≈ 3.98 µM). Moreover, in assay [3], the “IC90 (μg/ml) STA 29213” value amounted to 4.11 µg/mL (≈ 7.08 µM). Moreover, the “IC90 (μg/ml) STA RMETH” value in assay [4] turned out to be 2.59 µg/mL (≈ 4.46 µM).
Take `CCN(CC)CCCCC(O)(CCc1cccc2ccccc12)C(c1ccccc1)c1cc2cc(Br)ccc2nc1OC` (centres unmarked) [Compound 73]: the IC90 in assay [1] turned out to be 2.55 µg/mL (≈ 3.99 µM); in assay [3] (Staphylococcus aureus, ATCC29213, Staphylococcus aureus (ATCC29213), read-out: IC90 (μg/ml) STA 29213), 2.02 µg/mL (≈ 3.16 µM); in assay [4], 2.55 µg/mL (≈ 3.99 µM).
